# Reference: patent US9750817B2, “Amphotericin B derivatives” (priority 2015, dated 2017)
# How the values were obtained:
# ICR mice = assay: In vivo toxicity, intravenous injection; conditions: for LD50 / Maximum Dose: tail vein
# Description: In-vivo toxicity was determined in mice using 6 week old female ICR mice (n=6). Different concentrations of each formulation were injected intravenously through the tail vein, 0.2 ml per mouse, until death was observed. PAD-AMB conjugates were prepared in sterile saline solution and were filtered through 0.45-micrometer pore-size cellulose acetate sterile filters prior to injection.
# C. albicans CBS 562 = assay: In-vitro time-kill study; type: cell-based, Candida albicans; conditions: 2-fold above the MIC, over 2 hours, 30° C.
# Description: In time-kill studies, C. albicans CBS 562 was grown overnight from a single colony in 50 ml of liquid YPD medium (composed of 1% (w/v) yeast extract, Difco, 2% w/v peptone, Difco, and 2% w/v dextrose, Merck) at 30° C. On the next day, the starter was diluted 1:100 in the same medium and grown to an optical density at 600 nanometers (OD600 nm) of 0.5-0.6. Then, cells were counted and diluted to 10^6 cells/ml in YPD. Compound 6 and amphotericin B (AMB) were added at concentrations 2-fold above the MIC determined for this strain (2 and 0.5 μg/ml, respectively) and shaken at 30° C. At different time points (0, 15 min, 30 min, 1 h, 2 h) samples were removed, diluted and plated on YPD agar (2% agar) plates. Colonies were counted after incubation for 24 h at 30° C. Control measurements included untreated C. albicans cells and cells treated with AMB. All time-kill curve studies were conducted in duplicate and in three independent experiments.
# [1] = tested on: mouse embryonic fibroblasts (MEFs); assay: MTT viability assay in mouse embryonic fibroblasts; type: cell-based
# Description: Reference is made to FIG. 4C. Mouse embryonic fibroblasts were used in this example. 1×10^4 mouse embryonic fibroblasts (MEFs) per well were seeded in 96-well plates and incubated at 37° C. After 24 h the media was replaced with 100 μl culture medium containing serial dilutions of AMB, compounds 4 or 6, or left untreated. After 24 h, the media was replaced by fresh media (100 μl per well) containing 1 mg/ml MTT (3-(4,5-Dimethylthiazol-2-yl)-2,5-Diphenyltetrazolium Bromide, ((Biological Industries, Israel)) reagent and the cells were incubated for an additional 3 h at 37° C. MTT-formazan crystals were dissolved by the addition of 100 μl per well of extraction solution (20% SDS, 50% N,N-dimethyl formamide (DMF), pH=4.7) and incubation for 16 h at 37° C. Absorbance at 570 nm was recorded on a Biotek Synergy HT plate reader.
# The results were expressed as the percentage of living cells relative to the untreated control and are depicted in FIG. 4C. The inhibition concentration (IC50) value is the concentration of the compound which inhibited cell growth by 50%.
# Aspergillus flavus = assay: MIC/MFC broth dilution (CLSI), clinical isolates; type: cell-based; conditions: A. Flavus, 3 isolates, 48 h at 37° C.
# Description: (§1) Isolates of Aspergillus fumigatus, Aspergillus flavus, Aspergillus terreus Aspergillus niger, Rhizopus oryzae, Candida albicans and Candida krusei were isolated from patients in Israeli hospitals and used for in vitro efficacy studies.
# (§2) Efficacy was evaluated by measuring minimum inhibitory concentration (MIC) and minimum fungicidal concentration (MFC) values for fungal isolates. Testing of isolates was performed according to the Clinical & Laboratory Standards Institute (CLSI) method. (CLSI. 2008. M27-A3 Reference method for broth dilution antifungal susceptibility testing of yeasts; Approved Standard—3rd edition. Clinical and Laboratory Standards Institute, Wayne). RPMI MOPS media was used throughout the experiment as growth and dilution media. Spores and yeast cells were harvested in 0.05% Tween from 24-48 h and cultures were grown in rich yeast extract-agar-glucose (YAG) medium (composed of: 0.5% w/v yeast extract, 1% w/v glucose, 10 millimolar (mM) MgCl2, supplemented with 0.1% v/v trace elements solution, and 0.2% v/v vitamin mix). The spores and the yeast cells were counted and diluted to a final concentration of 2.5×10^4 per ml. A stock solution of 5 mg/ml was prepared in dimethylsulfoxide for free AMB. Compounds 4 and 6 were prepared in sterile saline. Double dilutions of each drug were performed in 100 μL volume of RPMI-MOPS in 96 well plates beginning with a final concentration of 32 micrograms (μg)/well of each drug to 0.06 μg/well. 2500 spores or yeast cells were added to each well. Results were recorded 48 h post incubation at 37° C. […] The MFC was defined as the lowest drug concentration that yielded three or fewer colonies (i.e. 99% of the inoculum was killed).
# Candida krusei = assay: MIC/MFC broth dilution (CLSI), clinical isolates; type: cell-based; conditions: C. krusei, 3 isolates, 48 h at 37° C.
# Description: as §1, §2
# Aspergillus niger = assay: MIC/MFC broth dilution (CLSI), clinical isolates; type: cell-based; conditions: A. niger, 3 isolates, 48 h at 37° C.
# Description: as §1, §2
# Aspergillus terreus = assay: MIC/MFC broth dilution (CLSI), clinical isolates; type: cell-based; conditions: listed as printed C. terreus, 1 isolate, 48 h at 37° C.
# Description: as §1, §2
# Candida albicans = assay: MIC/MFC broth dilution (CLSI), clinical isolates; type: cell-based; conditions: C. albicans, 2 isolates, 48 h at 37° C.
# Description: as §1, §2
# Rhizopus oryzae = assay: MIC/MFC broth dilution (CLSI), clinical isolates; type: cell-based; conditions: 1 isolate, 48 h at 37° C.
# Description: as §1, §2
# Aspergillus fumigatus = assay: MIC/MFC broth dilution (CLSI), clinical isolates; type: cell-based; conditions: A. fumigatus, 4 isolates, 48 h at 37° C.
# Description: as §1, §2
# human erythrocytes = assay: In-vitro toxicity (hemolysis) study; type: cell-based; conditions: 6 μg/ml; for toxicity to erythrocytes: assay conditions of FIG. 4B
# Description: Reference is made to FIG. 4B. Fresh human erythrocytes were diluted 1:100 in PBS, and incubated in an Eppendorf tube while rotating slowly in the presence of 6 μg/ml of each of compound 4 and compound 6. Amphotericin B was used as positive control. Sterile double distilled water served as a control for 100% hemolysis. After 1, 3, 5 and 21 h, 20 μl of each test tube were removed and diluted in 180 μl PBS. Samples were centrifuged for 10 minutes at 1200 RPM and the optical density of the supernatant was measured at 425 nm.
# A. fumigatus (Af 293) = assay: MIC of compound 6, AMB and FMOC-6; type: cell-based, Aspergillus fumigatus
# Description: as §2
# (§3) In addition, the amine protected equivalent of compound 6 in which the amine of compound 6 was protected with an FMOC group was tested (designated FMOC-6) to determine MIC versus AMB and versus compound 6 against A. fumigatus (Af 293) and C. albicans (CBS562).
# C. albicans (CBS562) = assay: MIC of compound 6, AMB and FMOC-6; type: cell-based, Candida albicans
# Description: as §2, §3
structure (smiles),measurement,setting,value
"COC(=O)C1C(O)CC2(O)CC(O)CC(O)C(O)CCC(O)CC(O)CC(=O)OC(C)C(C)C(O)C(C)C=CC=CC=CC=CC=CC=CC=CC(OC3OC(C)C(O)C(NC(=O)CCOCCOCCOCCOCCOCCOCCOCCOCCN)C3O)CC1O2 (stereo not drawn) [Compound 6, amphotericin B amide, methyl ester-PEG(8)-amine]",mouse LD50 fold higher than AMB,"ICR mice; female ICR mice, intravenous",≥ 40 fold
same,signs of toxicity at the highest injectable doses,"ICR mice; female ICR mice, intravenous",did not show any signs of toxicity
same,LD50,"ICR mice; female ICR mice, intravenous",not reached
same,Maximum Dose,"ICR mice; female ICR mice, intravenous",42 mg/kg
same,time-kill activity (fungal presence),C. albicans CBS 562,reducing the fungal presence
same,times less toxic than AMB,[1]; from IC50,at least 600 times
same,MFC,Aspergillus flavus,2 to 4 µg/mL
same,MIC,Aspergillus flavus,2 to 4 µg/mL
same,MFC,Candida krusei,4 µg/mL
same,MIC,Candida krusei,2 µg/mL
same,MFC,Aspergillus niger,2 µg/mL
same,MIC,Aspergillus niger,2 µg/mL
same,MFC,Aspergillus terreus,16 µg/mL
same,MIC,Aspergillus terreus,16 µg/mL
same,MFC,Candida albicans,2 µg/mL
same,MIC,Candida albicans,1 µg/mL
same,MFC,Rhizopus oryzae,4 µg/mL
same,MIC,Rhizopus oryzae,4 µg/mL
same,MFC,Aspergillus fumigatus,2 to 8 µg/mL
same,MIC,Aspergillus fumigatus,1 to 8 µg/mL
same,hemolytic activity,human erythrocytes; after 3 h of agitation,only slightly hemolytic
same,toxicity to erythrocytes,human erythrocytes,negligible toxicity
same,MIC,A. fumigatus (Af 293),2 µg/mL
same,MIC,C. albicans (CBS562),2 µg/mL
"C[C@@H]1[C@H](O)[C@@H](C)/C=C/C=C/C=C/C=C/C=C/C=C/C=C/[C@H](O[C@@H]2O[C@H](C)[C@@H](O)[C@H](N)[C@@H]2O)C[C@@H]2O[C@](O)(C[C@@H](O)C[C@@H](O)[C@H](O)CC[C@@H](O)C[C@@H](O)CC(=O)O[C@H]1C)C[C@H](O)[C@H]2C(=O)O [AMB, Amphotericin B]",LD50,"ICR mice; female ICR mice, intravenous",1.2 mg/kg
same,Maximum Dose,"ICR mice; female ICR mice, intravenous",1.1 mg/kg
same,outcome at twice the LD50,ICR mice; mice injected at twice the LD50,die instantaneously
same,maximum tolerated dose,ICR mice; mouse,about 1 mg/kg body weight per day
same,time-kill activity (fungal presence),C. albicans CBS 562,reducing the fungal presence
same,IC50 (concentration which inhibited cell growth by 50%),"[1]; 24 h exposure, MTT",6.6 µg/mL
same,MFC,Aspergillus flavus,0.5 to 1 µg/mL
same,MIC,Aspergillus flavus,0.5 to 1 µg/mL
same,MFC,Candida krusei,1 to 2 µg/mL
same,MIC,Candida krusei,0.5 µg/mL
same,MFC,Aspergillus niger,0.5 to 1 µg/mL
same,MIC,Aspergillus niger,0.5 to 1 µg/mL
same,MFC,Aspergillus terreus,4 µg/mL
same,MIC,Aspergillus terreus,2 µg/mL
same,MFC,Candida albicans,0.5 µg/mL
same,MIC,Candida albicans,0.25 µg/mL
same,MFC,Rhizopus oryzae,0.25 µg/mL
same,MIC,Rhizopus oryzae,0.25 µg/mL
same,MFC,Aspergillus fumigatus,0.5 to 4 µg/mL
same,MIC,Aspergillus fumigatus,0.25 to 1 µg/mL
same,hemolysis,human erythrocytes; after 3 h of agitation,76%
same,toxicity to erythrocytes,human erythrocytes,very toxic
same,MIC,A. fumigatus (Af 293),0.5 µg/mL
same,MIC,C. albicans (CBS562),0.25 µg/mL
